These results are taken from the NIST ThermoML archive (doi:10.1021/je0604479).

± gives the expanded uncertainty stated by the source.

The conditions of data set [1]: Liquid; for mass density: 298.15 K, 101.33 kPa.
Data set [2] is described as follows: refractive index (Na D-line) (dimensionless). The settings on record: 298.15 K; 101.33 kPa; Liquid; Standard Abbe refractometry.

For `CCCO` [propan-1-ol], the mass density in data set [1] worked out at 799.62 ± 0.57 kg/m3. For the same compound, the “vapor or sublimation pressure” value in data set [1] (369.75 K) was found to be 101.3 ± 0.8 kPa. In addition, in data set [2], the refractive index is 1.3836 ± 0.0008.
With `CCCOCCC` [dipropyl ether], in data set [1], the mass density is recorded as 741.81 ± 0.65 kg/m3. For the same compound, in data set [1] (363.16 K), the “vapor or sublimation pressure” value was 101.3 ± 0.8 kPa. In addition, the refractive index in data set [2] is given as 1.3784 ± 0.0008.
For the compound `CN(C)C=O` [dimethylformamide], in data set [1], the mass density was 948.72 ± 0.49 kg/m3. For the same compound, the “vapor or sublimation pressure” value in data set [1] (425.63 K) is 101.3 ± 0.8 kPa. In data set [2], the refractive index is listed as 1.4265 ± 0.0008.

Usually mass density stands for the mass of a sample divided by its volume. One may read the vapor or sublimation pressure as the pressure of vapour in equilibrium with the condensed phase. By refractive index is commonly meant the speed of light in vacuum divided by its phase velocity in the sample.
